Results published in article PMC9207808 (ACS Chemical Biology, 2022).
Where “and” joins values, the source holds several entries; their conditions need not be identical. Equal values may be shown once. Read-outs that look alike come from different tables or passages of the source. Residues, ends and D or L forms follow the SMILES beside them. No end group written: not given here.

How the values were obtained:
[1] = test system: DocSTm; assay: Differential scanning fluorimetry (thermal stabilisation of Doc); assay type: binding, S. Typhimurium; conditions: for melting temperature shift ΔTm: DSF, DocSTm 5 μM, analyte 50 μM, Tm with analyte minus Tm of free DocSTm (42.9 ± 0.9 °C), SYPRO Orange, 20 mM K2HPO4, 50 mM (NH4)2SO4, pH 8.0, triplicate; for Average Tm / Tm: DocSTm 5 µM + 50 µM binder; for Average Tm: average of 3 replicates
In short: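 Thermal shift of 5 μM Doc in 20 mM K2HPO4, 50 mM (NH4)2SO4, pH 8.0 with 3× SYPRO Orange, heated from 25 to 95 °C in a qPCR instrument, in triplicate. Melting temperatures from Boltzmann sigmoid fits of the transition region.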

[2] = test system: DocSTm; assay: Surface plasmon resonance binding to immobilised Doc; design: species or system S. Typhimurium; conditions: for koff × 10^-6 / kon × 10^6: 1:1 kinetic fit, mean ± SD of at least 3 replicates; for kon × 10^6: single-cycle kinetics (multicycle for PhdSTm1-73); for Half-life of the complex: t1/2 = ln2 / koff; for affinity to DocSTm greater than that of peptides 7, 10 and 14: SPR Kd ratio; for fold decrease in affinity (given as decrease/loss in Kd) compared with peptide 1: SPR Kd relative to wild-type peptide 1
In short: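 Doc captured on an NTA chip at 22 °C in 10 mM HEPES, 500 mM NaCl, 50 μM EDTA, 0.005% TWEEN 20, pH 8.0. Analytes injected as 80 s pulses at 30 μL/min in multicycle or single-cycle kinetics.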

[3] = test system: DocSTm; assay: Dot blot phosphorylation assay (EF-Tu phosphorylation by Doc); assay type: biochemical, S. Typhimurium; conditions: α-pThr, DocSTm 1 μM, EF-TuSTm 3 μM, ATP 1 mM, inhibitor 10 μM to 5 nM (3-fold dilutions), 16 h at RT
In short: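 Doc-mediated phosphorylation of EF-Tu was run for 16 h at RT, then the samples were spotted on nitrocellulose. Phospho-EF-Tu was detected with a rabbit monoclonal anti-phosphothreonine antibody and an HRP anti-rabbit secondary, read by chemiluminescence.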

[4] = test system: S. Typhimurium (14028) Δphd-doc::Km strains coexpressing DocSTm; assay: Growth rescue experiment in S. Typhimurium; assay type: cell-based; conditions: coexpression of DocSTm (pBAD33, arabinose) and Phd construct (pCA24N, basal expression); OD600 over time, M9 minimal medium; average of three independent experiments
Procedure: The cotransformations above were also performed with an empty pBAD33 plasmid, as a control for the absence of DocSTm expression.
For the growth rescue experiment, overnight (1% tryptone, 0.5% yeast extract, 0.5% NaCl, 1% glucose, 100 μg/mL of carbenicillin, and 34 μg/mL of chloramphenicol) cultures of the generated S. Typhimurium strains were diluted to an OD600 of approximately 0.006 into fresh M9 minimal medium supplemented with 0.5% or 1% arabinose, 0.4% glycerol, 0.4% casamino acids, 100 μg/mL of carbenicillin, and 34 μg/mL of chloramphenicol. Cell growth at a given time was monitored at OD600 with a Genesys 140 Visible Spectrophotometer (Thermo Scientific).

[5] = target: Doc1-122–His6 (DocSTm toxin) (Salmonella typhimurium); assay: SPR; Biacore S200; Doc-His6 captured on a Series S NTA chip (200-400 RU); peptide as analyte, single-cycle kinetics, six concentrations (3-fold dilutions), 30 uL/min; 22 C; 10 mM HEPES, 500 mM NaCl, 50 uM EDTA, 0.005% TWEEN 20, pH 8.0; kinetic 1:1 fit
[6] = target: Doc1-122–His6 (DocSTm toxin) (Salmonella typhimurium); assay: as above; remark: listed apart in the source
[7] = target: Doc1-122–His6 (DocSTm toxin) (Salmonella typhimurium); assay: as above; remark: listed apart in the source
[8] = target: Doc toxin of Salmonella enterica serovar Typhimurium (DocSTm) (Salmonella enterica serovar Typhimurium); assay: SPR; DocSTm immobilised on a Series S NTA chip (150 nM, 200-400 RU); analytes in single-cycle kinetics, typically six concentrations, kinetic 1:1 fit; 22 °C; 10 mM HEPES, 500 mM NaCl, 50 μM EDTA, 0.005% TWEEN 20, pH 8.0
[9] = SPR, kinetic fit, KD calculated from mean koff and kon, SD propagated, 22 °C, pH 8.0

Molecule: CC[C@H](C)[C@H](NC(=O)[C@H](C)NC(=O)[C@H](C)NC(=O)[C@H](Cc1ccccc1)NC(=O)[C@H](CCC(=O)O)NC(=O)[C@H](C)NC(=O)[C@H](CC(=O)O)NC(=O)[C@H](CCSC)NC(=O)[C@H](Cc1c[nH]c2ccccc12)NC(C)=O)C(=O)N[C@@H](CCSC)C(=O)N[C@@H](C)C(=O)N[C@H](C(=O)N[C@@H](Cc1c[nH]cn1)C(=O)NCC(=O)N[C@@H](CC(N)=O)C(=O)N[C@@H](CCC(=O)O)C(=O)N[C@@H](CC(C)C)C(=O)N[C@@H](CCCNC(=N)N)C(=O)N[C@@H](CCC(=O)O)C(=O)N[C@@H](CC(C)C)C(=O)N[C@@H](C)C(=O)N[C@@H](CC(=O)O)C(=O)N[C@@H](CCCCN)C(=O)O)C(C)C [peptide 4] (Ac-WMDAEFAAIMAVHGNELRELADK-OH; C-terminus assumed)
- melting temperature shift ΔTm [1]: 26.2 ± 0.9 °C
- Average Tm [1]: 69.1 ± 0.2 °C
- Tm ([1]; replicate 1): 69.0 °C
- Tm ([1]; replicate 2): 69.3 °C
- Tm ([1]; replicate 3): 69.1 °C
- improvement in koff compared with 1 ([2]; SPR): ~1.5 fold
- improvement in kon compared with 1 ([2]; SPR): ~4 fold
- gain of affinity compared to peptide 1 ([2]; SPR Kd relative to peptide 1): greater than 5 fold
- Kd ([2]; SPR kinetic fit, replicate 1): 12.8 pM
- Kd ([2]; SPR kinetic fit, replicate 2): 16.6 pM
- Kd ([2]; SPR kinetic fit, replicate 3): 10.1 pM
- koff × 10^-6 ([2]; SPR, 22 °C, pH 8.0): 62 ± 17 ×10^-6 s-1
- kon × 10^6 ([2]; SPR, 22 °C, pH 8.0): 4.733 ± 0.155 ×10^6 M-1 s-1
- Kd [2, 9]: 13 pM
- Half-life of the complex [2]: 186 ± 48 min
- inhibition of EF-TuSTm phosphorylation by DocSTm (in words) [3]: inhibited DocSTm at similar concentrations to peptide 1
- rescue of Salmonella growth from DocSTm-induced growth inhibition (in words) [4]: restored bacterial growth following similar kinetics as the wild-type sequence

Molecule: CC[C@H](C)[C@H](NC(=O)[C@H](C)NC(=O)[C@H](C)NC(=O)[C@H](C)NC(=O)[C@H](CCC(=O)O)NC(=O)[C@H](CC(=O)O)NC(=O)[C@H](CC(=O)O)NC(=O)[C@H](CCSC)NC(=O)[C@H](Cc1c[nH]c2ccccc12)NC(C)=O)C(=O)N[C@@H](CCSC)C(=O)N[C@@H](C)C(=O)N[C@H](C(=O)N[C@@H](Cc1c[nH]cn1)C(=O)NCC(=O)N[C@@H](CC(N)=O)C(=O)N[C@@H](CCC(=O)O)C(=O)N[C@@H](CC(C)C)C(=O)N[C@@H](CCCNC(=N)N)C(=O)N[C@@H](CCC(=O)O)C(=O)N[C@@H](CC(C)C)C(=O)N[C@@H](C)C(=O)N[C@@H](CC(=O)O)C(=O)N[C@@H](CCCCN)C(=O)O)C(C)C [peptide 6] (Ac-WMDDEAAAIMAVHGNELRELADK-OH; C-terminus assumed)
- melting temperature shift ΔTm [1]: 21.1 ± 1.0 °C
- Average Tm [1]: 64.0 ± 0.5 °C
- Tm ([1]; replicate 1): 64.5 °C
- Tm ([1]; replicate 2): 64.1 °C
- Tm ([1]; replicate 3): 63.5 °C
- affinity to DocSTm greater than that of peptides 7, 10 and 14 [2]: at least 12 fold
- fold decrease in affinity (given as decrease/loss in Kd) compared with peptide 1 [2]: 8- to 30 fold
- Kd ([2]; SPR kinetic fit, replicate 1): 1000 pM
- Kd ([2]; SPR kinetic fit, replicate 2): 919 pM
- Kd ([2]; SPR kinetic fit, replicate 3): 745 pM
- koff × 10^-6 ([2]; SPR, 22 °C, pH 8.0): 843 ± 231 ×10^-6 s-1
- kon × 10^6 ([2]; SPR, 22 °C, pH 8.0): 0.989 ± 0.434 ×10^6 M-1 s-1
- Kd [2, 9]: 852 pM
- Half-life of the complex [2]: 13.8 ± 3.6 min
- inhibition of EF-TuSTm phosphorylation by DocSTm (in words) [3]: among the poorest inhibitors of EF-TuSTm phosphorylation
- rescue of Salmonella growth from DocSTm-induced growth inhibition (in words) [4]: not able to counteract DocSTm-induced growth inhibition of Salmonella

Molecule: CC[C@H](C)[C@H](NC(=O)[C@H](C)NC(=O)[C@H](C)NC(=O)[C@H](Cc1ccccc1)NC(=O)[C@H](CCC(=O)O)NC(=O)[C@H](CC(=O)O)NC(=O)[C@H](CC(=O)O)NC(=O)[C@H](CCSC)NC(=O)[C@H](Cc1c[nH]c2ccccc12)NC(C)=O)C(=O)N[C@@H](CCSC)C(=O)N[C@@H](C)C(=O)N[C@H](C(=O)N[C@@H](Cc1c[nH]cn1)C(=O)NCC(=O)N[C@@H](CC(N)=O)C(=O)N[C@@H](CCC(=O)O)C(=O)N[C@@H](CC(C)C)C(=O)N[C@@H](CCCNC(=N)N)C(=O)N[C@@H](CCC(=O)O)C(=O)N[C@@H](C)C(=O)N[C@@H](C)C(=O)N[C@@H](CC(=O)O)C(=O)N[C@@H](CCCCN)C(=O)O)C(C)C [peptide 17] (Ac-WMDDEFAAIMAVHGNELREAADK-OH; C-terminus assumed)
- melting temperature shift ΔTm [1]: 15.2 ± 1.0 °C
- Average Tm [1]: 58.0 ± 0.4 °C
- Tm ([1]; replicate 1): 58.5 °C
- Tm ([1]; replicate 2): 57.9 °C
- Tm ([1]; replicate 3): 57.8 °C
- affinity to DocSTm greater than that of peptides 7, 10 and 14 [2]: at least 12 fold
- fold decrease in affinity (given as decrease/loss in Kd) compared with peptide 1 [2]: 8- to 30 fold
- Kd ([2]; SPR kinetic fit, replicate 1): 2100 pM
- Kd ([2]; SPR kinetic fit, replicate 2): 1980 pM
- Kd ([2]; SPR kinetic fit, replicate 3): 1020 pM
- koff × 10^-6 ([2]; SPR, 22 °C, pH 8.0): 5967 ± 404 ×10^-6 s-1
- kon × 10^6 ([2]; SPR, 22 °C, pH 8.0): 3.837 ± 1.398 ×10^6 M-1 s-1
- Kd [2, 9]: 1550 ± 580 pM
- Half-life of the complex [2]: 1.92 ± 0.12 min
- inhibition of EF-TuSTm phosphorylation by DocSTm (in words) [3]: among the poorest inhibitors of EF-TuSTm phosphorylation
- rescue of Salmonella growth from DocSTm-induced growth inhibition (in words) [4]: not able to counteract DocSTm-induced growth inhibition of Salmonella

Molecule: peptide 4 (PhdSTm52-73-D54A)
- koff [5]: 6.2e-05 s⁻¹
- kon [5]: 4.73e+06 M⁻¹ s⁻¹
- Kd [6]: 12.8 pM and 16.6 pM and 10.1 pM
- koff [6]: 8.12e-05 s⁻¹ and 4.76e-05 s⁻¹ and 5.84e-05 s⁻¹
- kon [6]: 4.89e+06 M⁻¹ s⁻¹ and 4.73e+06 M⁻¹ s⁻¹ and 4.58e+06 M⁻¹ s⁻¹

B1: peptide 22 (PhdSTm55-71) (peptide)
peptide: Ac-EFAAIMAVHGNELRELA-OH
- koff [5]: 0.000503 s⁻¹
- kon [5]: 1.45e+06 M⁻¹ s⁻¹
- Kd [7]: 342 pM and 336 pM and 365 pM
- koff [7]: 0.000521 s⁻¹ and 0.000492 s⁻¹ and 0.000495 s⁻¹
- kon [7]: 1.5e+06 1/(M s) (2×) and 1.4e+06 1/(M s)

B2: peptide 21 (PhdSTm55-73) (peptide)
peptide: Ac-EFAAIMAVHGNELRELADK-OH
- Kd [5]: 396 pM
- koff [5]: 0.000496 s⁻¹
- kon [5]: 1.25e+06 M⁻¹ s⁻¹
- Kd [7]: 410 pM and 412 pM and 365 pM
- koff [7]: 0.000551 s⁻¹ and 0.000501 s⁻¹ and 0.000436 s⁻¹
- kon [7]: 1.3e+06 1/(M s) and 1.2e+06 1/(M s) (2×)

B3: peptide 3 (Phd 52-73 D53A) (peptide)
peptide: Ac-WMADEFAAIMAVHGNELRELADK
- Kd [8]: 13 pM
- fold improvement of koff against peptide 1 [8]: 1.5 fold
- fold improvement of kon against peptide 1 [8]: 4 fold

B4: peptide 17 (Phd 52-73 L70A) (peptide)
peptide: Ac-WMDDEFAAIMAVHGNELREAADK
- Kd [8]: 1550 pM

B5: peptide 4 (Phd 52-73 D54A) (peptide)
peptide: Ac-WMDAEFAAIMAVHGNELRELADK
- Kd [8]: 13 pM
- fold improvement of koff against peptide 1 [8]: 1.5 fold
- fold improvement of kon against peptide 1 [8]: 4 fold

B6: peptide 23 (PhdSTm56-70) (peptide)
peptide: Ac-FAAIMAVHGNELREL-OH
- koff [5]: 0.00279 s⁻¹
- kon [5]: 1.41e+06 M⁻¹ s⁻¹
- Kd [7]: 1850 pM and 1940 pM and 2180 pM
- koff [7]: 0.00284 s⁻¹ and 0.00279 s⁻¹ and 0.00276 s⁻¹
- kon [7]: 1.53e+06 M⁻¹ s⁻¹ and 1.44e+06 M⁻¹ s⁻¹ and 1.26e+06 M⁻¹ s⁻¹

B7: peptide 6 (Phd 52-73 F56A) (peptide)
peptide: Ac-WMDDEAAAIMAVHGNELRELADK
- Kd [8]: 852 pM
